# Where “and” joins values, the source holds several entries; their conditions need not be identical. Identical values can stand only once. Entries after “also recorded” stand apart in the source; their conditions may differ. Like-named read-outs stand apart in the source and are kept apart here.
# Columns and labels:
# TRPV1 channel = molecular target: T1, TRPV1 channel (Homo sapiens, UniProt Q8NER1); test: Ion channel profiling at Charles River: TRPV1; format: cell-based; conditions: expressed in HEK293 cells; read-out: ESTIMATED IC50
# T1 construct: host or cells: HEK293 cells
# Protocol: (§1) 1.4.3 Ion Channel Profiling at Charles River
# (§2) Table S9. Compound 24 was tested against the following ion channels at Charles River Laboratories. […]
# (§3) FLIPR Assay expressed in HEK293 cells
# (§4) GABAA α5/β3/γ2 ionotropic receptor (human GABRA5, GABRB3, >30 and GABRG2 genes, expressed in HEK293 cells […]
# TRPV1 channel (human TRPV1 gene) expressed in HEK293 cells >30 […]
# (§5) An increase in the number of colonies of at least two-fold over baseline (mean + SD of the vehicle control) and a dose response indicate a positive response. An […]
# (§6) different from the vehicle control.
# (§7) Where indicated, S9 fraction from the livers of Aroclor 1254-treated rats were included in the incubation at a final concentration of 4.5%. A NADPH-regenerating system was also included to ensure a steady supply of reducing equivalents.
# [1] = molecular target: T2, hKv1.5 potassium channels (Homo sapiens, UniProt P22460); test: Ion channel profiling at Charles River: hKv1.5; format: cell-based
# T2 construct: host or cells: CHO cells
# Protocol: as §1, §2
# FASTPatch Assay IK (KCa3.1) calcium-activated potassium channel (human KCNN4 >30 gene) expressed in CHO cells
# Cloned hKv1.5 potassium channels (encoded by the human 32.6
# KCNA5 gene, expressed in CHO cells) […]
# as §3
# (§8) GABAA α5/β3/γ2 ionotropic receptor (human GABRA5, GABRB3, >30 and GABRG2 genes, expressed in HEK293 cells
# [2] = molecular target: T3, GABAA α5/β3/γ2 ionotropic receptor (Homo sapiens, UniProt P18507+P28472+P31644); test: Ion channel profiling at Charles River: GABAA; format: cell-based
# T3 construct: host or cells: HEK293 cells
# Protocol: as §1, §2
# (§9) FASTPatch Assay IK (KCa3.1) calcium-activated potassium channel (human KCNN4 >30 gene) expressed in CHO cells […]
# (§10) ScreenPatch Assay Kv1.3 potassium channel (human KCNA3 gene) expressed in CHO […]
# as §3, §8
# CYP1A = CYP1A (Homo sapiens, UniProt P05177); test: Cytochrome P450 inhibition assay, CYP1A; format: in vitro ADME
# Protocol: (§11) 1.4.4 Pharmacokinetic and off-target functional assays (Cyprotex)
# (§12) Compound 24 was assayed at Cyprotex in functional assays for interference with important off-targets as well as important pharmacokinetic parameters. With the exception of plasma protein binding, a dose-response relationship was studied in order to calculate IC50 values.
# (§13) Table S10. Information on in vitro ADMET assays performed at Cyprotex. […]
# as §5, §6, §7
# [3] = molecular target: T4, IK (KCa3.1) calcium-activated potassium channel (Homo sapiens, UniProt O15554); test: Ion channel profiling at Charles River: IK; format: cell-based; conditions: expressed in CHO cells; read-out: ESTIMATED IC50
# T4 construct: host or cells: CHO cells
# Protocol: as §1, §2, §9, §3, §8
# TRPA1 channel = molecular target: T5, TRPA1 channel (Homo sapiens, UniProt O75762); test: Ion channel profiling at Charles River: TRPA1; format: cell-based; conditions: expressed in CHO cells; read-out: ESTIMATED IC50
# T5 construct: host or cells: CHO cells
# Protocol: as §1, §2, §10, §3, §4
# TRPA1 channel (human TRPA1 gene) expressed in CHO cells >30 […]
# as §5, §6, §7
# Kv1.3 potassium channel = molecular target: T6, Kv1.3 potassium channel (Homo sapiens, UniProt P22001); test: Ion channel profiling at Charles River: Kv1.3; format: cell-based; conditions: expressed in CHO cells; read-out: ESTIMATED IC50
# T6 construct: host or cells: CHO cells
# Protocol: as §1
# Table S9. Compound 24 was tested against the following ion channels at Charles River Laboratories.
# ASSAY TYPE ION CHANNEL AND EXPRESSION SYSTEM ESTIMATED […]
# as §10, §3
# GABAA α5/β3/γ2 ionotropic receptor (human GABRA5, GABRB3, >30
# and GABRG2 genes, expressed in HEK293 cells
# [4] = Plasma protein binding, human (equilibrium dialysis); format: in vitro ADME
# Protocol: as §11, §12, §13
# (§14) Plasma protein binding assay (human and Equilibrium dialysis […]
# as §5, §6, §7
# [5] = Plasma protein binding, murine (equilibrium dialysis); format: in vitro ADME, mouse
# Protocol: as §11, §12, §13, §14, §5, §6, §7
# [6] = molecular target: T7, Potassium Channel hERG (human) (Homo sapiens, UniProt Q12809); test: Cerep panel binding assay; conditions: 10 µM, [3H] Dofetilide
# T7 construct: purchased Eurofins Pharma Discovery (Cerep) SafetyScreen44 Panel, ITEM P270
# Protocol: (§15) 1.4 Safety Pharmacology of Compound 24
# (§16) 1.4.1 Cerep panel (Eurofins)
# (§17) Compound 24 was further profiled for its off-target interactions against a panel of 44 targets. The
# (§18) screening was done by Eurofins Pharma Discovery within the SafetyScreen44 Panel (Cerep, ITEM
# (§19) P270). In all assays binding/functional inhibition was determined at 10 µM.
# (§20) Table S6. […]
# Potassium Channel hERG (human) [3H] […]
# Na+ channel (site 2) = test: Cerep panel binding assay; parameters: species or system rat; conditions: 10 µM, antagonist radioligand
# Protocol: as §15, §16, §17, §18, §19, §20
# CYP3A4 = molecular target: T8, CYP3A4 (Homo sapiens, UniProt P08684); test: Cytochrome P450 inhibition assay, CYP3A4; format: in vitro ADME
# T8 construct: Cyprotex
# Protocol: as §11, §12, §13, §5, §6, §7
# P. aeruginosa PAO1 = test: Biofilm-eradication assay with amikacin; format: cell-based, Pseudomonas aeruginosa; conditions: 10 × 10^−6 M 24 plus 4 µg/mL amikacin
# Protocol: compound, 150 µL 1% DMSO in LB. The inoculator was wrapped with parafilm again and incubated for another 24 h. After that, the peg lid was transferred for 1 min to a 96-well plate containing 200 µL sterile MΩ in each well, followed by another 96 well plate containing 200 µL LB in each well. The system was sealed with parafilm and sonicated for 15 min in an ultrasonic bath with tray.
# Immediately after sonication, 20 µL were removed from each well using a multi-channel pipette and diluted 1:10 (stepwise, until 10-6). After each dilution step, 10 µL were directly transferred to cetrimide agar plates (spot plating) using fresh pipette tips. Agar plates were incubated for 16 h at 37 °C and then used for cell counting. Statistical analysis was performed with GraphPad Prism 8.4.1 (GraphPad Software, San Diego, CA) using one-way ANOVA with Tukey’s multiple comparisons test.
# Statistical outliers were determined using the Nalimov test, applying a 95% cut-off.
# 1.2.5 Biofilm-eradication assay
# The assay was carried out as described in section 1.2.4, with the following modifications: In the first incubation step only QSI or DMSO (DMSO control and tobramycin control) were added to the wells at time 0. The well plate used for the second incubation step contained QSI/DMSO as before, in presence/absence of tobramycin/amikacin. […]
# CYP2C19 = molecular target: T9, CYP2C19 (Homo sapiens, UniProt P33261); test: Cytochrome P450 inhibition assay, CYP2C19; format: in vitro ADME; conditions: Metabolic activity
# T9 construct: Cyprotex
# Protocol: as §11, §12, §13, §5, §6, §7
# [7] = Metabolic stability in mouse liver microsomes (MLM)
# Protocol: 1.3.2 Metabolic-Stability Tests in Mouse Liver Microsomes (MLM).
# Phase I metabolic stability was evaluated by incubating the compound (1 μM) with 0.5 mg/mL MLM (Corning) and 1 mM NADPH at 37 °C for 0, 5, 10, 15 and 30 min. The enzymatic activity of the MLM was determined by measuring the metabolic stability of Verapamil, Diphenhydramine and Benzydamine (1 μM each).
# The half-life (t1/2) was determined by analyzing the concentrations of the compounds at the different time points by HPLC-MS/MS.
# T7 sequence (Q12809 whole entry): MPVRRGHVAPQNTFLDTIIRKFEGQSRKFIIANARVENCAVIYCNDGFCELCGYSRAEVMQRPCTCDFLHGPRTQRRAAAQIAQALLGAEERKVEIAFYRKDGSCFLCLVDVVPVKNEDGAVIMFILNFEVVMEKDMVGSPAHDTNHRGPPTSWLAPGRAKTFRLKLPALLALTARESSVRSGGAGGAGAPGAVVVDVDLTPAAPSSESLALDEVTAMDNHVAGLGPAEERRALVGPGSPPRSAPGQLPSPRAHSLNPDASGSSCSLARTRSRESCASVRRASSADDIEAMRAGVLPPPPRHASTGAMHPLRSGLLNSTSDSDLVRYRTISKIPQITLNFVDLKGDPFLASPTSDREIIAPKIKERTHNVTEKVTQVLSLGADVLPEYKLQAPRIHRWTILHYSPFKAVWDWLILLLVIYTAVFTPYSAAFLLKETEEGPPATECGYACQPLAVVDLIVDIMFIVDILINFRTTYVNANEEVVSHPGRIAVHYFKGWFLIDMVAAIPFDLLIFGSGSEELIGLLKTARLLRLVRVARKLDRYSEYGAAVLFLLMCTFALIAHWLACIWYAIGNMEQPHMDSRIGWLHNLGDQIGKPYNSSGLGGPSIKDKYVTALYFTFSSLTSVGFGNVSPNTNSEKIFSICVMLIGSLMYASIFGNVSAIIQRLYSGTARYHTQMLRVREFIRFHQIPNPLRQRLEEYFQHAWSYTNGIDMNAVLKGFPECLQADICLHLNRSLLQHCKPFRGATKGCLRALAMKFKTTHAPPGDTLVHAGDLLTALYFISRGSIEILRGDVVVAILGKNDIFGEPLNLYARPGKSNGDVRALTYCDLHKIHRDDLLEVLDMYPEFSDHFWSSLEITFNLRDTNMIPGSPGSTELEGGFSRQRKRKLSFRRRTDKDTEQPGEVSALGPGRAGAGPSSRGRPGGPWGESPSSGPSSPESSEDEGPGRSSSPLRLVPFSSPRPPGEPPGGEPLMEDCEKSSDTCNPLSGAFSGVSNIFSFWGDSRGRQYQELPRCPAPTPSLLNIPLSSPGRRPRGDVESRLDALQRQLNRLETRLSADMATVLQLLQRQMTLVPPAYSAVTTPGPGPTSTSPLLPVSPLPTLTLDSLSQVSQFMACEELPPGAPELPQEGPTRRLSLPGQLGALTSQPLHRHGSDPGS
# T2 sequence (P22460 whole entry): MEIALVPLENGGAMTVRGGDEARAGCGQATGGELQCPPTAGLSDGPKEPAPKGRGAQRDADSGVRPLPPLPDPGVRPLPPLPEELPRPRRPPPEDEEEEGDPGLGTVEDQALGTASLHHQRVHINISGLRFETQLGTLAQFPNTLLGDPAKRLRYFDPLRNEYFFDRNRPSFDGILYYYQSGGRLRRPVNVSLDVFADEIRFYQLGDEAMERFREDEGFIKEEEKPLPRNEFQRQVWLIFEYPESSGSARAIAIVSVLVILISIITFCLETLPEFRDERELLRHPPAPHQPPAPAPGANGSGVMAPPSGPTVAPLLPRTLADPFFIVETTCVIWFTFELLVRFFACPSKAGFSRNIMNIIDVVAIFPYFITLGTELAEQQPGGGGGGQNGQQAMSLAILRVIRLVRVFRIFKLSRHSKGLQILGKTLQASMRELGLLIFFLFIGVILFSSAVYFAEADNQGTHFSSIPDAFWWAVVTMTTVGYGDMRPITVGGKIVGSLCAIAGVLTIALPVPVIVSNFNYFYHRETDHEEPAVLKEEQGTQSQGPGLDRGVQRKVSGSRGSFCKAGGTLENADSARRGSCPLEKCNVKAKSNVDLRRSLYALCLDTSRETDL
# T8 sequence (P08684 whole entry): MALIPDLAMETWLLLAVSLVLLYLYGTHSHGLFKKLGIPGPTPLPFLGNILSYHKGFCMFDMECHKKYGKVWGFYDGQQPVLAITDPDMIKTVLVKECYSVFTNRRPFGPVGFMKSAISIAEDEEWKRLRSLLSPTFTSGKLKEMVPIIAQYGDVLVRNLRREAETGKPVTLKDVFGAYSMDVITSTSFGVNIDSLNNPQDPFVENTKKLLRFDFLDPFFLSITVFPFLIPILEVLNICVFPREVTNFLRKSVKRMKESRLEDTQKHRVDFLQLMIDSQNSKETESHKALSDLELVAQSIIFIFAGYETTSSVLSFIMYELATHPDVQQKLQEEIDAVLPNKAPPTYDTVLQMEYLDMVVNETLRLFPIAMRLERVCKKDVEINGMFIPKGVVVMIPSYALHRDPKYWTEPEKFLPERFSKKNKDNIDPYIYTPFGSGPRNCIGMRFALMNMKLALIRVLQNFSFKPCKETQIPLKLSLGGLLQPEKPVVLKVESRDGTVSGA
# T5 sequence (O75762 whole entry): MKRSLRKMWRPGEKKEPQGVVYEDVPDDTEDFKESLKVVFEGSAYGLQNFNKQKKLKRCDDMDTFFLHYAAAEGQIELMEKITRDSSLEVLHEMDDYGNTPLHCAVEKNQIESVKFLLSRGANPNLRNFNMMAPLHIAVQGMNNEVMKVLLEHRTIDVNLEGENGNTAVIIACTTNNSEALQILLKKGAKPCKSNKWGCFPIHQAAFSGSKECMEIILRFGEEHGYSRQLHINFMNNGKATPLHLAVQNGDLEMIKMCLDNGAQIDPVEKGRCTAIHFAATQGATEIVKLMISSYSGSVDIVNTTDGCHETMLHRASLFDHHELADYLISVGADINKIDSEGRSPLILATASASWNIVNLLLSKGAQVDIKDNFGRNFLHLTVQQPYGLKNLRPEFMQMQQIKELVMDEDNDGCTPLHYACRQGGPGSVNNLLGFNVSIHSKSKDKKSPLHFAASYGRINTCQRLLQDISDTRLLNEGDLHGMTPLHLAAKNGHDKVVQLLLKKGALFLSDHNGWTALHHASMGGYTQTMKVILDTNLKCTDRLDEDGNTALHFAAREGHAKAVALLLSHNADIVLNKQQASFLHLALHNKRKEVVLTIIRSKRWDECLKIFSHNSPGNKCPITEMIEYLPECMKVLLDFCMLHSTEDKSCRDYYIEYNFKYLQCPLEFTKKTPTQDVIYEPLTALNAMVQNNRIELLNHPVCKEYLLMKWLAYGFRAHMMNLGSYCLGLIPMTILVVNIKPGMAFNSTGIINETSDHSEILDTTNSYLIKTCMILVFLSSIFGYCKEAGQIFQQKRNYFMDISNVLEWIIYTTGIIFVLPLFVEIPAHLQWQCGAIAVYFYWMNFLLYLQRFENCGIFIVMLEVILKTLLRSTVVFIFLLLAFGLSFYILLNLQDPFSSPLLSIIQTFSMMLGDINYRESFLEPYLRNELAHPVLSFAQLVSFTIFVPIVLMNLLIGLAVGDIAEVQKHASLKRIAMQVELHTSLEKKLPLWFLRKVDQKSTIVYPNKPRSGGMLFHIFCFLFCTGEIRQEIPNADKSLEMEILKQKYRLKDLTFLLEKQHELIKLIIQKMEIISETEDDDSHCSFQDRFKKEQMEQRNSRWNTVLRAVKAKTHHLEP
# T1 sequence (Q8NER1 whole entry): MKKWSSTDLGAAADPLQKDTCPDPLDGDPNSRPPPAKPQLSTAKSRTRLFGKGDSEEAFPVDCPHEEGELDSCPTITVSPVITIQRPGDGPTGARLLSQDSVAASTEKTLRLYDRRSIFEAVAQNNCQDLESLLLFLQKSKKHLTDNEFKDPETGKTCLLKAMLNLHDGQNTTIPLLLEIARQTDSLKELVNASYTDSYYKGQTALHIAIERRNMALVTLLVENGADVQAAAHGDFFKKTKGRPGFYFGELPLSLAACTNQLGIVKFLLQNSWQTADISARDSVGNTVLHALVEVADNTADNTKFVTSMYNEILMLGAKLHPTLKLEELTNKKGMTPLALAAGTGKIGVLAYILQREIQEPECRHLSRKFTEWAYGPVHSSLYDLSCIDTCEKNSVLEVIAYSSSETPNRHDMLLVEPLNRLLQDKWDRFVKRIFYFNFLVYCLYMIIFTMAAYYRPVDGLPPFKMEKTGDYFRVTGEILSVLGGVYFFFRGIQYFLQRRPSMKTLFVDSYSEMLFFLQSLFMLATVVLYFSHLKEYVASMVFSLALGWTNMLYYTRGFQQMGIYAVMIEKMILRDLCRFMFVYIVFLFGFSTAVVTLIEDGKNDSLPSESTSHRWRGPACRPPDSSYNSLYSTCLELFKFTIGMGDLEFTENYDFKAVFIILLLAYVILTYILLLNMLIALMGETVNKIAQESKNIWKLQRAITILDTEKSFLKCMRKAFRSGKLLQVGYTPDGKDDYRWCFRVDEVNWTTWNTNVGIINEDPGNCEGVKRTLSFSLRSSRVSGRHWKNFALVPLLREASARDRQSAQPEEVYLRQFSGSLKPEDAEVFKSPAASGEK
# T9 sequence (P33261 whole entry): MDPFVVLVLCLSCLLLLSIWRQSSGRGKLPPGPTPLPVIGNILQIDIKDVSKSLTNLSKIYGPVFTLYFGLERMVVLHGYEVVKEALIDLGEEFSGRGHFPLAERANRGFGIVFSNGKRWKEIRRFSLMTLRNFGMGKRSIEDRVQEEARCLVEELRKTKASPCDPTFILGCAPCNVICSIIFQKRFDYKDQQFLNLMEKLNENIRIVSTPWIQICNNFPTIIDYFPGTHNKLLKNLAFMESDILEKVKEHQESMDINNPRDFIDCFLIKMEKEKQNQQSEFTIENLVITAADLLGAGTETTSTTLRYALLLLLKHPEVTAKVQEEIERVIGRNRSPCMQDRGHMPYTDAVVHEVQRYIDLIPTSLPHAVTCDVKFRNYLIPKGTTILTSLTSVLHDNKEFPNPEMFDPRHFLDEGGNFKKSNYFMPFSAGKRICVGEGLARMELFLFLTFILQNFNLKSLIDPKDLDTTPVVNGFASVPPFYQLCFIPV
compound,measurement,setting,value
CC(C)Oc1ccc(-c2ncc(CNc3ccnc(C(F)(F)F)c3)cn2)cc1Cl [Compound 24],IC50,TRPV1 channel,> 30 µM
same,IC50,"[1]; expressed in CHO cells, read-out: ESTIMATED IC50",32.6 µM
same,IC50,[1]; read-out: hKv1.5 functional inhibition IC50,~30 µM
same,IC50,[2],> 30 µM
same,IC50,CYP1A,> 25 µM
same,IC50,[3],> 30 µM
same,IC50,TRPA1 channel,> 30 µM
same,IC50,Kv1.3 potassium channel,> 30 µM
same,Plasma binding human,[4],>99%
same,Plasma binding murine,[5],>99%
same,BINDING (%),[6],73.1% and > 50%
same,BINDING (%),Na+ channel (site 2),57.2% and > 50%
same,IC50,"CYP3A4; Metabolic activity, activation observed",> 25 µM
same,CYP3A4 activation,CYP3A4; at 10 × 10^−6 M,> 50%
same,Effect on amikacin activity against PAO1 biofilm,P. aeruginosa PAO1,significant boost in activity; also recorded: boosted
same,IC50,CYP2C19,> 25 µM
same,half-life at 1 μM,[7],19 min

# — publication PMC9929129, “Towards Translation of PqsR Inverse Agonists: From In Vitro Efficacy Optimization to In Vivo Proof‐of‐Principle” (Advanced Science, 2023)
